Source: publication PMC12535377, “Synaptic and intrinsic plasticity mediated by CCK-type signaling coordinates behavioral changes during motivational state shifts” (Cell reports, 2025)
Non-standard residues stand in square brackets, D forms with d. Residues, ends and D or L forms follow the SMILES beside them. sY = N[C@@H](Cc1ccc(OS(=O)(=O)O)cc1)C(=O)O; pGlu = O=C1CC[C@@H](C(=O)O)N1

Legend:
[1] = system: CBI-2-elicited feeding motor programs; assay: CBI-2-elicited feeding motor programs in isolated cerebral and buccal ganglia; design: species or system Aplysia californica; details: for B8 activity (frequency) during retraction: 10^-6 M and 10^-5 M; for Feeding program effect, summary grade: Table S1 summary in words
Procedure: To explore the neural basis of the behavioral effects of apCCKs, we examined their modulation of feeding-motor programs in isolated ganglia. All eight forms of apCCKs were tested on programs induced by CBI-2, a command-like interneuron that is active during food-elicited feeding behavior[56] and provides potent excitatory inputs to buccal central pattern generator (CPG) interneurons,[54],[77] orchestrating ingestive motor programs (Figure S23A). Stable single-cycle motor programs were evoked by stimulating CBI-2 at 8–10 Hz throughout the protraction phase with a 90-s intertrial interval. Two concentrations, 10^−6 M and 10^−5 M, of apCCKs were tested.
(§1) Intracellular and extracellular recordings were made as described previously.[57]–[59],[61],[151] To prevent movements of ganglia caused by myoactive apCCK (especially [sY8]-apCCK1 and [sY6, sY8]-apCCK1) during bath application, we treated the ganglia with 0.8% protease IX for 1–2 min prior to desheathing. Subsequently, ganglia were desheathed, transferred to a recording chamber containing ~1.5 mL of ASW (460 mM NaCl, 10 mM KCl, 11mM CaCl2, 55 mM MgCl2, and 10 mM HEPES, pH 7.6), continuously perfused at 0.3 mL/min, and maintained at 14°C–17°C. The experiments examining the effects of apCCKs on excitability of B20/B34/B61/62/B65/B64 neurons were performed in a high divalent saline (368 mM NaCl, 8 mM KCl, 13.8 mM CaCl2, 115 mM MgCl2, and 10 mM HEPES, pH 7.6), which increases the spiking threshold of neurons and therefore curtails polysynaptic influences. Intracellular recordings were obtained using 5–10 MΩ sharp microelectrodes filled with an electrolyte (0.6 M K2SO4 plus 60 mM KCl). Extracellular recordings were acquired from polyethylene suction electrodes. Grass S88 and WPI Pulsemaster A300 stimulators were used to provide timing signals for intracellular and extracellular stimulation. To determine the effects of various forms of apCCKs on Aplysia feeding programs, we performed experiments with the cerebral and buccal ganglia. Freshly made apCCK solution in ASW was perfused into the recording chamber. Feeding-motor programs were elicited by stimulation of command-like neuron CBI-2 at 8–10 Hz or stimulation of the EN at 2 Hz, 3 ms, 15 V, and were monitored by bursting activity of the I2 nerve of the buccal ganglion.[58],[59],[61] Typically, we recorded from motor neuron B8, and one interneuron, e.g., B40 or B20. To determine effects of apCCKs on synaptic strength, we stimulated presynaptic neuron, CBI-2, B34 (plus 1 nA current) or B65 at 10 Hz for 2 s for several trials and waited 1 min between each trial. The stimulation duration for each trial was set at 2 s because this allows the expression of synaptic facilitation without evoking too many spikes. Typically, the amplitude of the last EPSP at each concentration of peptides was quantified unless otherwise stated.

Aplysia californica = assay: Feeding behavior (food intake) in intact animals after peptide injection; format: in vivo; details: for Behavioral effect (food intake), summary grade: Table S1 summary in words; for Food intake (seaweed consumed in a single meal): food-deprived animals
Source text: To explore the role of apCCKs as satiety signals in mollusks, we examined their effects on food intake. […] The remaining four forms had no impact (Figure S9). Moreover, [sY6, sY8]-apCCK1 slowed food consumption (Figure 2E), which could stem, in part, from a shift from ingestive to egestive patterns as the meal progressed. [sY6, sY8]-apCCK1 also extended the duration to consume one strip of seaweed compared to controls (Figure 2F), further mimicking natural satiety.
Behavioral experiments were conducted in two batches, each using animals from separate shipments. In the first batch (Figure 2), animals were larger, with an average body weight of 93.3 ± 4.8 g, and were food-deprived for 7 days prior to testing. In the second batch (Figure S9), animals were smaller (average weight: 70.6 ± 4.0 g) and were food-deprived for 5 days to account for their reduced size. In each experiment, two weight-matched animals were housed in separate round net cages (17 cm diameter and 17 cm height) that were placed in a 500 L tank filled with circulating aerated ASW (14°C–16°C). To ensure that the animals were responsive to food, they were first pretested with a small piece of seaweed. After this pretest, in each pair, one animal was injected (into the hemocoel using a syringe needle) with apCCKs freshly dissolved in 1.5 mL ASW, whereas the other was injected with 1.5 mL of ASW. Three minutes later, the feeding session commenced. Animals were hand-fed seaweed (Shirako, Tokyo, Japan) cut in 1 × 10 cm strips, weighing ~0.1 g, increasing 10-fold when hydrated. This hand-feeding approach has been used in prior study of Aplysia feeding behavior.[146],[147] The consumed seaweed amount was converted to hydrated weight and normalized to the animal’s body weight. Each strip of seaweed was delivered to the mouth area with forceps. Feeding was terminated after 1 h or when animals stopped ingesting seaweed for 3 min.

[2] = system: EN-elicited feeding motor programs; assay: EN-elicited egestive motor programs in isolated ganglia; design: species or system Aplysia californica; details: EN stimulation at 2 Hz
Source text: Although protraction (B61/62) activity is inhibited by apCCKs during CBI-2-elicited programs, this might not be the case for the egestive motor programs elicited by EN stimulation, which could contribute positively to satiety. We therefore examined [sY8]-apCCK1 effects on B61/62 activity in EN-elicited egestive motor programs. […] This difference may be explained in part by effects on the interneuron B65, which is strongly active during EN programs but not during CBI-2 programs,[56],[81]–[83] whereas the opposite is true for B34.[54],[61] B65 elicits fast excitatory postsynaptic potentials (EPSPs) in B61/62.[81] [sY8]-apCCK1 increased B65 excitability (Figures 6M and 6N) and EPSPs from B65 to B61/62 (Figures 6O and 6P), which could account for the increase of B61/62 activity during EN programs.
Intracellular and extracellular recordings were made as described previously.[57]–[59],[61],[151] […] Feeding-motor programs were elicited by stimulation of command-like neuron CBI-2 at 8–10 Hz or stimulation of the EN at 2 Hz, 3 ms, 15 V, and were monitored by bursting activity of the I2 nerve of the buccal ganglion.[58],[59],[61] Typically, we recorded from motor neuron B8, and one interneuron, e.g., B40 or B20. […] Typically, the amplitude of the last EPSP at each concentration of peptides was quantified unless otherwise stated.

[3] = system: B20, B40, B64, B34, B61/62, B65 neurons and CBI-2 synapses; assay: Electrophysiology: excitability and synaptic strength of identified feeding-circuit neurons; design: species or system Aplysia californica
Source text: To characterize apCCK mechanisms of action, we investigated their effects on synaptic and intrinsic plasticity of key circuit elements. […] However, [sY8]-apCCK1 decreased synaptic strength between CBI-2 and B40 (Figures S26C and S26D).
as §1

[4] = injection into hemocoel of apCCK solutions (10^-7 M or 10^-6 M) vs ASW
[5] = presynaptic stimulation 10 Hz for 2 s, last EPSP

## CC(C)C[C@H](NC(=O)CNC(=O)[C@H](Cc1ccc(OS(=O)(=O)O)cc1)NC(=O)[C@H](CC(=O)O)NC(=O)[C@H](Cc1ccc(OS(=O)(=O)O)cc1)NC(=O)[C@H](CO)NC(=O)[C@H](Cc1c[nH]c2ccccc12)NC(=O)[C@H](C)NC(=O)CNC(=O)[C@@H]1CCC(=O)N1)C(=O)NCC(=O)NCC(=O)NCC(=O)N[C@@H](CCCNC(=N)N)C(=O)N[C@@H](Cc1ccccc1)C(N)=O [[sY6, sY8]-apCCK1] ([pGlu]GAWS[sY]D[sY]GLGGGRF-NH2)
[1]; 10^-6 M and 10^-5 M tested
  Protraction duration of CBI-2 programs: shortened
[1]; CBI-2 programs
  B8 activity (frequency) during retraction: reduced
[1]
  Feeding program effect, summary grade: Strong
Aplysia californica
  Behavioral effect (food intake), summary grade: Strong
Aplysia californica; injected with 10^-8 M, compared with control animals
  Time to consume one strip of seaweed (average of the first three strips): took longer
Aplysia californica; [4]
  Food intake (seaweed consumed in a single meal): strongly reduced food intake

## CC(C)C[C@H](NC(=O)CNC(=O)[C@H](Cc1ccc(O)cc1)NC(=O)[C@H](CC(=O)O)NC(=O)[C@H](Cc1ccc(OS(=O)(=O)O)cc1)NC(=O)[C@H](CO)NC(=O)[C@H](Cc1c[nH]c2ccccc12)NC(=O)[C@H](C)NC(=O)CNC(=O)[C@@H]1CCC(=O)N1)C(=O)NCC(=O)NCC(=O)NCC(=O)N[C@@H](CCCNC(=N)N)C(=O)N[C@@H](Cc1ccccc1)C(N)=O [[sY6]-apCCK1] ([pGlu]GAWS[sY]DYGLGGGRF-NH2)
[1]
  Feeding program effect, summary grade: No effect
Aplysia californica
  Behavioral effect (food intake), summary grade: No effect
Aplysia californica; [4]
  Food intake (seaweed consumed in a single meal): did not influence feeding

## CC(C)C[C@H](NC(=O)CNC(=O)[C@H](Cc1ccc(OS(=O)(=O)O)cc1)NC(=O)[C@H](CC(=O)O)NC(=O)[C@H](Cc1ccc(O)cc1)NC(=O)[C@H](CO)NC(=O)[C@H](Cc1c[nH]c2ccccc12)NC(=O)[C@H](C)NC(=O)CNC(=O)[C@@H]1CCC(=O)N1)C(=O)NCC(=O)NCC(=O)NCC(=O)N[C@@H](CCCNC(=N)N)C(=O)N[C@@H](Cc1ccccc1)C(N)=O [[sY8]-apCCK1] ([pGlu]GAWSYD[sY]GLGGGRF-NH2)
[2]
  B61/62 firing frequency in EN-elicited programs: increased
[1]; 10^-6 M
  B20 firing frequency in CBI-2 programs: increased
  Type of CBI-2-elicited motor program: shifted ingestive programs to egestive
[1]; 10^-6 M and 10^-5 M tested
  B34 frequency in CBI-2 programs: decreased
  B40 firing frequency in CBI-2 programs: decreased
  B61/62 frequency in CBI-2 programs: decreased
  Protraction duration of CBI-2 programs: shortened
  Retraction duration of CBI-2 programs: shortened
[1]; CBI-2 programs, 10^-5 M
  B8 activity during protraction: decreased
[1]; CBI-2 programs, 10^-6 M
  B8 activity during protraction: significantly increased
[1]; CBI-2 programs
  B8 activity (frequency) during retraction: significantly decreased
[1]; CBI-2 programs, 10^-6 M and 10^-5 M tested
  Firing frequency of the I2 nerve: significantly decreased
[1]
  Feeding program effect, summary grade: Strongest
[3]
  B40 excitability: enhanced
  Synaptic strength between CBI-2 and B40: decreased
[3]; 10^-6 M, high divalent saline
  B20 excitability: significantly enhanced
[3]; first EPSP of each stimulation trial
  EPSPs from B65 to B61/62: increased
[3]; high divalent saline
  B34 excitability: enhanced
  B61/62 excitability: enhanced
  B64 excitability: enhanced
  B65 excitability: increased
[3]; higher concentration (10^-5 M), high divalent saline
  B20 excitability: no significant effect
[3]; [5]
  Synaptic strength between B34 and B61/62: decreased
  Synaptic strength between CBI-2 and B34: decreased
  Synaptic strength between CBI-2 and B61/62: decreased
Aplysia californica
  Behavioral effect (food intake), summary grade: Strongest
Aplysia californica; injection into hemocoel, 10^-8 M or 10^-7 M
  Food intake (seaweed consumed in a single meal): completely inhibiting consumption

## CC(C)C[C@H](NC(=O)CNC(=O)[C@H](Cc1ccc(O)cc1)NC(=O)[C@H](CC(=O)O)NC(=O)[C@H](Cc1ccc(O)cc1)NC(=O)[C@H](CO)NC(=O)[C@H](Cc1c[nH]c2ccccc12)NC(=O)[C@H](C)NC(=O)CNC(=O)[C@@H]1CCC(=O)N1)C(=O)NCC(=O)NCC(=O)NCC(=O)N[C@@H](CCCNC(=N)N)C(=O)N[C@@H](Cc1ccccc1)C(N)=O [apCCK1] ([pGlu]GAWSYDYGLGGGRF-NH2)
[1]
  Feeding program effect, summary grade: No effect
Aplysia californica
  Behavioral effect (food intake), summary grade: No effect
Aplysia californica; [4]
  Food intake (seaweed consumed in a single meal): did not influence feeding
